Measurements as given in PubChem BioAssay AID1259407 (Chemical Carcinogenesis Research Information System (CCRIS), 2018).
Calls of active or inactive are those of the source. No rule for the calls is given here.

Test system: CCRIS mutagenicity, Ames/micronucleus/aberration tests
Assay: CCRIS mutagenicity studies
[1] = Test System: AMES SALMONELLA TYPHIMURIUM, Strain/Indicator: TA98, Metabolic Activation: NONE, Method: STANDARD PLATE
[2] = Test System: AMES SALMONELLA TYPHIMURIUM, Strain/Indicator: TA100, Metabolic Activation: NONE, Method: STANDARD PLATE
[3] = Test System: AMES SALMONELLA TYPHIMURIUM, Strain/Indicator: TA1535, Metabolic Activation: NONE, Method: STANDARD PLATE
[4] = Test System: AMES SALMONELLA TYPHIMURIUM, Strain/Indicator: TA1537, Metabolic Activation: NONE, Method: STANDARD PLATE
[5] = Test System: AMES SALMONELLA TYPHIMURIUM, Strain/Indicator: TA100, Metabolic Activation: RAT, LIVER, S-9, AROCLOR 1254, Method: STANDARD PLATE
[6] = Test System: AMES SALMONELLA TYPHIMURIUM, Strain/Indicator: TA98, Metabolic Activation: NONE, Method: PREINCUBATION
[7] = Test System: AMES SALMONELLA TYPHIMURIUM, Strain/Indicator: TA100, Metabolic Activation: NONE, Method: PREINCUBATION
[8] = Test System: AMES SALMONELLA TYPHIMURIUM, Strain/Indicator: TA98, Metabolic Activation: RAT, LIVER, S-9, AROCLOR 1254, Method: STANDARD PLATE
[9] = Test System: AMES SALMONELLA TYPHIMURIUM, Strain/Indicator: TA98, Metabolic Activation: S-9, Method: STANDARD PLATE
[10] = Test System: AMES SALMONELLA TYPHIMURIUM, Strain/Indicator: TA100, Metabolic Activation: S-9, Method: STANDARD PLATE

O=Nn1cc(CCO)c2ccccc21
mutagenic call (Test System: AMES SALMONELLA TYPHIMURIUM, Strain/Indicator: TA97A, Metabolic Activation: NONE, Method: STANDARD PLATE): active; positive
mutagenic call [1]: active; positive
mutagenic call [2]: active; positive
mutagenic call [3]: active; positive
mutagenic call [4]: active; positive

O=c1cccccc1O
mutagenic call (Test System: MOUSE LYMPHOMA, Strain/Indicator: L5178Y (TK+/TK-), Metabolic Activation: NONE, Method: SUSPENSION/PLATE): active; positive. reevaluation of results: positive
mutagenic call (Test System: MOUSE LYMPHOMA, Strain/Indicator: L5178Y (TK+/TK-), Metabolic Activation: RAT, LIVER, S-9, AROCLOR 1254, Method: SUSPENSION/PLATE): inactive; positive. reevaluation of results: negative

C=CCn1cc2c3c(cccc31)C1C[C@@H](C)CN(C#N)[C@@H]1C2 (stereo not given in full)
mutagenic call [5]: active; positive

NC(CNCCCC[C@H](N)C(=O)O)C(=O)O (stereo not given in full)
mutagenic call (Test System: AMES SALMONELLA TYPHIMURIUM, Strain/Indicator: TA97, Metabolic Activation: NONE, Method: PREINCUBATION): inactive; negative
mutagenic call (Test System: AMES SALMONELLA TYPHIMURIUM, Strain/Indicator: TA97, Metabolic Activation: RAT, KIDNEY, S-9, AROCLOR 1254, Method: PREINCUBATION): inactive; negative
mutagenic call (Test System: AMES SALMONELLA TYPHIMURIUM, Strain/Indicator: TA97, Metabolic Activation: RAT, LIVER, S-9, AROCLOR 1254, Method: PREINCUBATION): inactive; negative
mutagenic call [6]: inactive; negative
mutagenic call (Test System: AMES SALMONELLA TYPHIMURIUM, Strain/Indicator: TA98, Metabolic Activation: RAT, KIDNEY, S-9, AROCLOR 1254, Method: PREINCUBATION): inactive; negative
mutagenic call (Test System: AMES SALMONELLA TYPHIMURIUM, Strain/Indicator: TA98, Metabolic Activation: RAT, LIVER, S-9, AROCLOR 1254, Method: PREINCUBATION): inactive; negative
mutagenic call [7]: inactive; negative
mutagenic call (Test System: AMES SALMONELLA TYPHIMURIUM, Strain/Indicator: TA100, Metabolic Activation: RAT, KIDNEY, S-9, AROCLOR 1254, Method: PREINCUBATION): inactive; negative
mutagenic call (Test System: AMES SALMONELLA TYPHIMURIUM, Strain/Indicator: TA100, Metabolic Activation: RAT, LIVER, S-9, AROCLOR 1254, Method: PREINCUBATION): inactive; negative
mutagenic call (Test System: AMES SALMONELLA TYPHIMURIUM, Strain/Indicator: TA102, Metabolic Activation: NONE, Method: PREINCUBATION): inactive; negative
mutagenic call (Test System: AMES SALMONELLA TYPHIMURIUM, Strain/Indicator: TA102, Metabolic Activation: RAT, KIDNEY, S-9, AROCLOR 1254, Method: PREINCUBATION): inactive; negative
mutagenic call (Test System: AMES SALMONELLA TYPHIMURIUM, Strain/Indicator: TA102, Metabolic Activation: RAT, LIVER, S-9, AROCLOR 1254, Method: PREINCUBATION): inactive; negative

c1ccc2cc3c(cc2c1)-c1cccc2cccc-3c12
mutagenic call (Test System: AMES SALMONELLA TYPHIMURIUM, Strain/Indicator: TA98, Metabolic Activation: HAMSTER, LIVER, S-9, AROCLOR 1254 (30%), Method: PREINCUBATION): active; positive
mutagenic call [6]: inactive; negative
mutagenic call (Test System: AMES SALMONELLA TYPHIMURIUM, Strain/Indicator: TA98, Metabolic Activation: RAT, LIVER, S-9, AROCLOR 1254 (30%), Method: PREINCUBATION): active; positive
mutagenic call (Test System: AMES SALMONELLA TYPHIMURIUM, Strain/Indicator: TA100, Metabolic Activation: HAMSTER, LIVER, S-9, AROCLOR 1254 (30%), Method: PREINCUBATION): active; positive
mutagenic call [7]: inactive; negative
mutagenic call (Test System: AMES SALMONELLA TYPHIMURIUM, Strain/Indicator: TA100, Metabolic Activation: RAT, LIVER, S-9, AROCLOR 1254): active; positive
mutagenic call (Test System: AMES SALMONELLA TYPHIMURIUM, Strain/Indicator: TA100, Metabolic Activation: RAT, LIVER, S-9, AROCLOR 1254 (30%), Method: PREINCUBATION): active; positive
mutagenic call [5]: active; positive

O=C(Cl)OCc1ccccc1
mutagenic call [1]: inactive; negative
mutagenic call [8]: inactive; negative
mutagenic call [2]: inactive; negative
mutagenic call [5]: inactive; negative
mutagenic call [3]: inactive; negative
mutagenic call (Test System: AMES SALMONELLA TYPHIMURIUM, Strain/Indicator: TA1535, Metabolic Activation: RAT, LIVER, S-9, AROCLOR 1254, Method: STANDARD PLATE): inactive; negative
mutagenic call [4]: inactive; negative
mutagenic call (Test System: AMES SALMONELLA TYPHIMURIUM, Strain/Indicator: TA1537, Metabolic Activation: RAT, LIVER, S-9, AROCLOR 1254, Method: STANDARD PLATE): inactive; negative

O=C/C=C\C=O
mutagenic call (End Point: In vitro micronucleus, Test System: Mouse lymphoma L5178Y cells, Metabolic Activation: None): active; positive
mutagenic call (Test System: AMES SALMONELLA TYPHIMURIUM, Strain/Indicator: TA104, Metabolic Activation: NONE, Method: PREINCUBATION): active; positive
mutagenic call (Test System: Mouse lymphoma, Strain/Indicator: L5178Y (tk+/tk-), Metabolic Activation: None, Method: Preincubation): active; positive

Oc1ccc(Cl)cc1
mutagenic call (Test System: AMES SALMONELLA TYPHIMURIUM, Strain/Indicator: TA97, Metabolic Activation: NONE, Method: STANDARD PLATE): inactive; negative
mutagenic call (Test System: AMES SALMONELLA TYPHIMURIUM, Strain/Indicator: TA97, Metabolic Activation: RAT, LIVER, S-9, AROCLOR 1254, Method: STANDARD PLATE): active; positive
mutagenic call [1]: inactive; negative
mutagenic call [8]: active; positive
mutagenic call [9]: active; positive
mutagenic call [2]: inactive; negative
mutagenic call [5]: active; positive
mutagenic call [10]: inactive; negative
mutagenic call (Test System: AMES SALMONELLA TYPHIMURIUM, Strain/Indicator: TA104, Metabolic Activation: NONE, Method: STANDARD PLATE): inactive; negative
mutagenic call (Test System: AMES SALMONELLA TYPHIMURIUM, Strain/Indicator: TA104, Metabolic Activation: RAT, LIVER, S-9, AROCLOR 1254, Method: STANDARD PLATE): inactive; negative

[O]=[U](=[O])=[O]
mutagenic call (Test System: Human bronchial epithelial (BEP2D) cells, Metabolic Activation: None, Method: Morphological transformation): active; positive. depleted uranium transformed cell lines exhibited significant chromoso

CC(C)(C)c1cc(-c2ccccc2)ccc1N=O
mutagenic call [1]: active; positive
mutagenic call [9]: active; positive
mutagenic call [2]: active; positive
mutagenic call [10]: active; positive

CN(C)CCNC(=O)c1cccc2cc(-c3ccccc3)oc12
mutagenic call [4]: active; positive
